Read-outs that look alike come from different tables or passages of the source.

For one data set, the system named is DIO C57BL/6 male mice. In kind it is in vivo, mouse. Conditions: 0.5 mg/kg i.p. The protocol: A dedicated study was conducted under contract at the University of Buckingham Institute of Translational Medicine (Pr. M A Cawthorne, Pr. P Trayhurn, Dr. C. Stocker) to assess the energetic and metabolic responses to the APT-110 miR-22-3p inhibitor treatment in adult Diet-Inducted-Obese (DIO) C57BL/6 male mice over the course of 3 months. Twenty-four DIO male C57BL/6 mice, who started on 60% high fat diet at the age of 7 weeks, were purchased at 15 weeks of age from the Jackson Laboratory, USA. The mice remained on a 60% high fat diet (Research Diet D12492) throughout the experiment. The mice were kept on a 12 h light/12 h dark light cycle with lights on at 08h00 and at a room temperature of 25±1° C. The mice were allocated to 2 groups of 12 mice each, (2 mice/cage) so that mean and standard deviation for body weight, blood glucose and serum insulin were similar across both groups. Mice were acclimated for two weeks before treatment initiation.
For oral glucose tolerance test, food was removed six hours prior to the start of the glucose tolerance test (09h00) and animals were placed in clean cages. Mice were dosed with glucose at T=0 minutes. Glucose was dissolved in water and given to the mice by oral gavage at a dose of 2.5 g/kg p.o. Blood samples […] were taken from the cut tip of the tail after the application of Lidocaine gel (Biorex Laboratories UK) for the analysis of glucose concentration at −30, 0, 30, 60, 120 and 180 minutes relative to glucose administration. Blood samples were also taken at −30 and +30 minutes for insulin analysis (Crystal Chem Inc. Cat INS90090). Food was returned to the animals at the end of the glucose tolerance test. Plasma nonesterified Fatty Acids (NEFA, Crystal Wako Chemicals Gmbh, Neuss, Germany, Cat 999-75406), leptin (Crystal Chem. Inc., Cat LEP90030) and adiponectin (Alpco Diagnostics, Salem, New Hampshire, Cat 47-ADPMS-E01) were measured as per the manufacturers' recommendations. Body fat and lean content was measured by Nuclear Magnetic Resonance (NMR). Comparison with calibrated standards allowed identification of types of tissue by their density. Dedicated software was used to quantify amounts of adipose and […]. The mice were gently restrained, sufficient to keep them quiescent during this non-invasive technique.
To measure physical activity, mice were kept in their original cages of 2 mice per cage. Recordings were taken using an infra-red recorder linked to a laptop. Recordings were made on the hour every hour from 7 pm until 8 am. Each recording was of 10-minute duration. Lights went out at 8 pm and came on again at 8 am. Analysis of activity was done by virtually drawing 2 lines across each cage (thus dividing them into 3 equal parts). Recordings were analyzed by eye and the number of times a line was broken by a mouse in each 10-minute segment was scored. Energy expenditure was measured at several time points during the course of the study by open-circuit indirect calorimetry with mice kept in their home cages (6 cages of 2 mice per experimental group (Arch, J. R., et al., 2006; Arch, J. R. and P. Trayhurn, 2013).
At the end of the study, tissues and organs were collected, then frozen for future gene expression analysis or placed in 10% neutral buffered formalin solution (Sigma-Aldrich Cat HT501128), then washed in PBS, pH 7.4 and transferred to 70% ethanol for subsequent processing for histologic and immunohistochemistry analyses.
In some studies, non-esterified fatty acids (NEFA), plasma leptin and adiponectin were also measured and oral glucose tolerance tests (OGTT) were performed. Oral glucose tolerance test was performed as follows: Six hours prior to the start of the glucose tolerance test (09h00), food was removed and animals were given clean cages. Mice were dosed with glucose at T=0 minutes. […]

For data set [1], the system named is UCP-1 protein expression in human subcutaneous adipocytes. Briefly: UCP-1 protein expression by immunofluorescence in human subcutaneous adipocytes. In kind it is cell-based. Particulars: Day 14; 50 nM APT-110 or 100 nM rosiglitazone; PBS 48±3%. The protocol:
To assess the effects of miR-22 inhibition on mitochondrial mass and activity, metabolic rate and energy expenditure, in vitro and in vivo experiments were carried out. In vitro intra-cellular assessment of mitochondrial mass and activities, as well as energy expenditure during miR-22 inhibition of human subcutaneous adipocytes were examined. In the model of primary culture of human subcutaneous adipocytes differentiated for 3 days, then transfected with 50 nM of the miR-22-3p inhibitor APT-110 and maintained in culture (n=6 per condition), the following parameters were assessed on Day 14. […]
(§1) Human subcutaneous preadipocytes purchased from ZenBio, NC (Catalog #: SP-F-SL) were plated at confluence in 96-well plates and allowed to attach overnight in preadipocyte medium (DMEM/Ham's F-12 (1:1, v/v), HEPES buffer, fetal bovine serum and antibiotics) following the supplier's instructions. […] Using a 96-well format, gene expression was determined by q-RT-PCR kit following the Manufacturer's instructions (TaqMan Gene Expression Cells-to-Ct kit, Life Technologies, cat #AM1728) and a 7900 HT Fast Real Time PCR System (Applied Biosystems). […] Mitochondrial mass and activity as well as UCP-1 protein expression were determined by high content imaging (ArrayScan XTI and BMG Fluostar Galaxy reader), with UCP-1 antibody (abcam cat #ab10983), and MitoTracker® Deep Red FM (ThermoFisher M22426).

In data set [2] the test system is human subcutaneous adipocytes. Briefly: Mitochondrial content/mass by MitoTracker in human subcutaneous adipocytes. The format is cell-based. Conditions: Day 14; Rosiglitazone 100 nM. The protocol: To assess the effects of miR-22 inhibition on mitochondrial mass and activity, metabolic rate and energy expenditure, in vitro and in vivo experiments were carried out. In vitro intra-cellular assessment of mitochondrial mass and activities, as well as energy expenditure during miR-22 inhibition of human subcutaneous adipocytes were examined. In the model of primary culture of human subcutaneous adipocytes differentiated for 3 days, then transfected with 50 nM of the miR-22-3p inhibitor APT-110 and maintained in culture (n=6 per condition), the following parameters were assessed on Day 14.
as §1

In data set [3] the test system is human subcutaneous adipocytes. Briefly: O2 consumption rate (OCR), Seahorse XF24 with XF Palmitate-BSA Fatty Acid Oxidation kit, human subcutaneous adipocytes. In kind it is cell-based. The protocol: To characterize the effects of miR-22-3p inhibition on energy utilization in human subcutaneous adipocytes in culture, O2 consumption rate (OCR) was measured with the XF24 Analyzer (Seahorse Bioscience) using the XF Palmitate-BSA Fatty Acid Oxidation substrate kit during the successive addition of Oligomycin, FCCP, and Antimycin/Rotenone, following the manufacturer instructions.
Human subcutaneous pre-adipocytes (ZenBio, NC) were seeded into 96-well plates and differentiated for 7 days, then placed in maintenance medium according to the manufacturer's instructions. On Day 14, the adipocytes were transfected with 50 nM of the miR-22-3p inhibitor APT-110. Medium was exchanged every 2 to 3 days and Seahorse assay was performed on Day 21. Negative control was bovine serum albumin (BSA) and positive control was 100 nM rosiglitazone throughout the culture.

For data set [4] the following is noted: Saenger 1989; cited from earlier work.

With `C[C@H](Cc1ccc2c(c1)OC(C(=O)[O-])(C(=O)[O-])O2)NC[C@H](O)c1cccc(Cl)c1.[Na+].[Na+]` [CL316243, reference compound], the “energy expenditure after i.p. injection” value with DIO C57BL/6 male mice (APT-110 group) and with DIO C57BL/6 male mice (control (saline) group) was “increased” throughout.

For the compound `CN(CCOc1ccc(CC2SC(=O)NC2=O)cc1)c1ccccn1` (stereo not drawn) [Rosiglitazone, reference compound], in data set [1], the “number of UCP1 positive cells” value worked out at 58±2%. Besides, the “cell density relative to miR-22-3p inhibitor condition” value in data set [2] is 3 times more cells. The “maximum respiration vs control” value in data set [3] (after FCCP, rosiglitazone 100 nM) was 4 fold. For the same compound, the “basal OCR vs control adipocytes” value in data set [3] (basal conditions, rosiglitazone 100 nM or APT-110 50 nM, control BSA) came to 4 fold. Consider `Nc1ncnc2c1ncn2[C@@H]1O[C@H](CO)[C@@H](O)[C@H]1O` [adenosine], for which the “pKa of the conjugate acid” value in data set [4] is listed as 3.52. Turning to `Nc1nc2c(ncn2[C@@H]2O[C@H](CO)[C@@H](O)[C@H]2O)c(=O)[nH]1` [guanosine], the pKa – broadly, the negative logarithm of the acid dissociation constant – in data set [4] is 9.42. In the case of `Cc1cn([C@H]2C[C@H](O)[C@@H](CO)O2)c(=O)[nH]c1=O` [thymidine], the pKa in data set [4] is 9.93.

These data come from patent US12286625B2, “Inhibition of mir-22 miRNA by APT-110” (AptamiR Therapeutics, Inc., priority 2016, dated 2025).
